Experimental data: US7041665B2, “Benzoxazinone derivatives, their preparation and use as medicaments” (Laboratories del Dr. Esteve, S.A., priority 2002, dated 2006)
Where a name gives a salt, the structure may show the parent alone.

Tests used:
Neuropeptide Y5 = molecular target: T1, Neuropeptide Y5 (Rattus norvegicus, UniProt Q63634); test: Binding to Neuropeptide Y5, [125I]-PYY(3-36), BIBP 3226 sat., rat cortex membranes; conditions: radioligand [125I]-PYY3-36, 1 μM BIBP 3226 to saturate Y1, 25° C., 120 minutes
T1 construct: their brains are rapidly removed and the cortex is dissected; from tissue; host or cells: rat brain cortex membranes (male Wistar rats)
T1 sequence (Q63634 1-445): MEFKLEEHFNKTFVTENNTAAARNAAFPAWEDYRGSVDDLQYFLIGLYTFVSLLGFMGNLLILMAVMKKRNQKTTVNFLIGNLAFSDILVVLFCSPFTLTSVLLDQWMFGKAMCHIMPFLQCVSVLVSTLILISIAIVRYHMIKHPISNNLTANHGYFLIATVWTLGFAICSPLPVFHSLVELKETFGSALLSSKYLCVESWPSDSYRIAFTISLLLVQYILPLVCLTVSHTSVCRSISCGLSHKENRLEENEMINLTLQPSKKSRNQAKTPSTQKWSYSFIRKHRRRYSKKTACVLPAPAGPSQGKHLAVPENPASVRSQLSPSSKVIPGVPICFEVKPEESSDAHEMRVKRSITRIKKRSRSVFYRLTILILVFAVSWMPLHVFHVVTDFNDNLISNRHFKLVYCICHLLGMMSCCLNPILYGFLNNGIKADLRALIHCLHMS
Description: Binding to Neuropeptide Y5
(§1) Male Wistar rats are sacrificed by decapitation, their brains are rapidly removed and the cortex is dissected. Homogenization is performed in cold conditions in the buffer: 120 mM NaCl, 4.7 mM KCl, 2.2 mM CaCl2, 1.2 mM KH2PO4, 1.2 mM MgSO4, 25 mM NaHCO3, 5.5 mM glucose, pH 7.4, by means of a Ultra-Turrax homogenizer for 15 seconds at 13,500 rpm. The ratio between fresh tissue weight and buffer volume is of twenty times. The membrane is centrifuged for 10 min at 48,000 g. The supernatant is discarded and the pellet is washed, resuspended and recentrifuged three more times. The final membrane resuspension is performed in the buffer: 120 mM NaCl, 4.7 mM KCl, 2.2 mM CaCl2, 1.2 mM KH2PO4, 1.2 mM MgSO4, 25 mM NaHCO3, 5.5 mM glucose, 0.1% BSA, 0.05% bacitracin, pH 7.4, at a ratio of 20 ml/g fresh tissue. […] Incubation volume: 500 μl. […] The filters are cold-washed three times with two milliliters of the same buffer used in homogenization. […] Non-specific binding is determined in the presence of 1 μM of pNPY (porcin Neuropeptide Y). The assays are performed in triplicate.

male Wistar rats = test: Nocturnal ingestion test; format: in vivo, rat; conditions: intra-peritoneal, compared to control group
Description: Measurement of the Intake in Animal Models
The animals employed were male Wistar rats (200–270 g) supplied by Harlan, S. A. The acclimatization period in our stable before being used in the experimental trials was at least 5 days. In this time the animals were stabled in groups of 5 in translucid cages, with water and food ad libitum. The animals were acclimatized to individual stabling at least 24 hours before conducting the experiment.
The test is carried out in the animal's cage in order to minimize the stress implied in a change of cage, which could affect the intake. Water and food are available at all times ad libitum. Immediately before turning out the lights in the room the animals are weighed and randomly assigned to a treatment group (vehicle or product under study). Immediately after the administration the rats are returned to their cages, where a known amount of food had been placed. The following morning the amount of food remaining in each cage was weighed, and the animals were again weighed.
References: Ants Kask et al., Journal of Pharmacology, 414 (2001) 215–224; Andrew V. Turnbull et al., Diabetes, Vol. 51, August 2002
Effect of Some Compounds of the Invention on Nocturnal Ingestion in Male Wistar Rats (Intra-Peritoneal Administration)

Neuropeptide Y2 = molecular target: T2, Neuropeptide Y2 (Rattus norvegicus, UniProt Q9ERC0); test: Binding to Neuropeptide Y2, [125I]-PYY(3-36), rat hypoccampus membranes; conditions: radioligand [125I]-PYY3-36, 25° C., 150 minutes
T2 construct: their brains are rapidly removed and the hypoccampus is dissected; from tissue; host or cells: rat hippocampus membranes (male Wistar rats)
T2 sequence (Q9ERC0 1-381): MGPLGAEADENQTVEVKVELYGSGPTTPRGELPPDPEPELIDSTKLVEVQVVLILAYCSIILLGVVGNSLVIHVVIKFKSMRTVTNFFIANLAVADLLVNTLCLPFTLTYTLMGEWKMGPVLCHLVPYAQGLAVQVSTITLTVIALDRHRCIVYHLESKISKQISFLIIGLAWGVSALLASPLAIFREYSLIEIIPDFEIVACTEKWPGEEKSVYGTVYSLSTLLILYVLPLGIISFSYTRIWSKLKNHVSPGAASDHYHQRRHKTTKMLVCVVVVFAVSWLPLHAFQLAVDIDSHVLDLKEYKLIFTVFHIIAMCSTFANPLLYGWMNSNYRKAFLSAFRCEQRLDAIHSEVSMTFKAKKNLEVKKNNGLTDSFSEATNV
Description: Binding to Neuropeptide Y2
as §1, with “the hypoccampus” for “the cortex”, “of ten” for “of twenty”, “recentrifuged two” for “recentrifuged three”, “times.” for “times. The final membrane resuspension is performed in the buffer: 120 mM NaCl, 4.7 mM KCl, 2.2 mM CaCl2, 1.2 mM KH2PO4, 1.2 mM MgSO4, 25 mM NaHCO3, 5.5 mM glucose, 0.1% BSA, 0.05% bacitracin, pH 7.4, at a ratio of 20 ml/g fresh tissue.”, “with three” for “with two”

O=C(CN1CCC(N2C(=O)OCc3ccccc32)CC1)Nc1ccc2c(c1)CCCC2=O (as salt: HCl) [Example 6, 1-{1-[N-(1-oxo-1,2,3,4-tetrahydronaphthalen-6-yl)aminocarbonylmethyl]-4-(piperidinyl)}-1,4-dihydro-2H-3,1-benzoxazin-2-one hydrochloride]
melting point: 260 to 264 °C

O=C(CN1CCC(N2C(=O)OCc3ccccc32)CC1)Nc1ccc2c(c1)-c1ccccc1C2=O [Example 3, 1-{1-[N-(9-oxo-9H-fluoren-3-yl)aminocarbonylmethyl]-4-(piperidinyl)}-1,4-dihydro-2H-3,1-benzoxazin-2-one hydrochloride]
Ki (Neuropeptide Y5): 6.4 nM

CCn1c2ccccc2c2cc(NC(=O)CN3CCC(N4C(=O)OCc5ccccc54)CC3)ccc21 [Example 18, 1-{1-[N-(9-ethyl-9H-carbazol-3-yl)aminocarbonylmethyl]-4-(piperidinyl)}-1,4-dihydro-2H-3,1-benzoxazin-2-one hydrochloride]
Effect on nocturnal ingestion: body weight of the animals (male Wistar rats; 40 mg/kg): reduces body
Effect on nocturnal ingestion: food intake (male Wistar rats; 40 mg/kg): Reduces food intake

1-{1-[N-(9-oxo-9H-fluoren-3-yl)aminocarbonylmethyl]-4-(piperidinyl)}-8-methyl-1,4-dihydro-2H-3,1-benzoxazin-2-one hydrochloride [Example 35]
Effect on nocturnal ingestion: body weight of the animals (male Wistar rats; 20 mg/kg): reduces body
Effect on nocturnal ingestion: food intake (male Wistar rats; 20 mg/kg): Reduces food intake

Cc1ccc2c(c1)COC(=O)N2C1CCN(CC(=O)Nc2ccc3c(c2)-c2ccccc2C3=O)CC1 [Example 20, 1-{1-[N-(9-oxo-9H-fluoren-3-yl)aminocarbonylmethyl]-4-(piperidinyl)}-6-methyl-1,4-dihydro-2 H-3,1-benzoxazin-2-one hydrochloride]
Effect on nocturnal ingestion: body weight of the animals (male Wistar rats; 40 mg/kg): reduces body
Effect on nocturnal ingestion: food intake (male Wistar rats; 40 mg/kg): Reduces food intake
Ki (Neuropeptide Y5): 0.87 nM

O=C(CN1CCC(N2C(=O)OCc3ccccc32)CC1)Nc1ccc2c(c1)-c1ccccc1C2=O (as salt: HCl) [Example 3, 1-{1-[N-(9-oxo-9H-fluoren-3-yl)aminocarbonylmethyl]-4-(piperidinyl)}-1,4-dihydro-2H-3,1-benzoxazin-2-one hydrochloride]
melting point: > 275 °C

Cc1ccc2c(c1)COC(=O)N2C1CCN(CC(=O)Nc2ccc3c(c2)-c2ccccc2C3=O)CC1 (as salt: HCl) [Example 20, 1-{1-[N-(9-oxo-9H-fluoren-3-yl)aminocarbonylmethyl]-4-(piperidinyl)}-6-methyl-1,4-dihydro-2 H-3,1-benzoxazin-2-one hydrochloride]
melting point: 250 to 252 °C

O=C(CN1CCC(N2C(=O)OCc3ccccc32)CC1)Nc1ccc2c(c1)CCCC2=O [Example 6, 1-{1-[N-(1-oxo-1,2,3,4-tetrahydronaphthalen-6-yl)aminocarbonylmethyl]-4-(piperidinyl)}-1,4-dihydro-2H-3,1-benzoxazin-2-one hydrochloride]
Ki (Neuropeptide Y2): > 1000 nM
Ki (Neuropeptide Y5): 18.4 nM
